This is an account of results in patent publication US8450243B2, “Herbicidal quinoline and 1,8-naphthyridine compounds” (Syngenta Limited, priority 2009, dated 2013).

What all share (assay type): in vivo
Assay [1] has as its system Abuthilon theophrasti (ABUTH). Briefly: Herbicidal glasshouse test, post-emergence. To be noted: POST Application, evaluated after 13 days; for pest or weed control at 250 g/ha: Abutilon theophrasti, post-emergence, 312 h, read-out: damage to plant (100=total damage to plant; 0=no damage to plant); for damage to plant (100=total damage to plant; 0=no damage to plant): 250 g/ha. Here is the method:
(§1) Seeds of a variety of test species were sown in standard soil in pots (Alopecurus myosuroides (ALOMY), Setaria faberi (SETFA), Echinochloa crus-galli (ECHCG), Abuthilon theophrasti (ABUTH) and Amaranthus retoflexus (AMARE)). After cultivation for one day (pre-emergence) or after 8 days cultivation (post-emergence) under controlled conditions in a glasshouse (at 24/16° C., day/night; 14 hours light; 65% humidity), the plants were sprayed with an aqueous spray solution derived from the formulation of the technical active ingredient in acetone/water (50:50) solution containing 0.5% Tween 20 (polyoxyethelyene sorbitan monolaurate, CAS RN 9005-64-5). Compounds were applied at 250 g/ha. The test plants were then grown in a glasshouse under controlled conditions in a glasshouse (at 24/16° C., day/night; 14 hours light; 65% humidity) and watered twice daily. After 13 days for pre and post-emergence, the test was evaluated (100=total damage to plant; 0=no damage to plant).

Assay [2] deals with Alopecurus myosuroides (ALOMY). Briefly: Herbicidal glasshouse test, post-emergence. To be noted: POST Application, evaluated after 13 days; for pest or weed control at 250 g/ha: Alopecurus myosuroides, post-emergence, 312 h, read-out: damage to plant (100=total damage to plant; 0=no damage to plant); for damage to plant (100=total damage to plant; 0=no damage to plant): 250 g/ha. Here is the method:
as §1

The test system of assay [3] is Amaranthus retoflexus (AMARE). Briefly: Herbicidal glasshouse test, post-emergence. The note with it: POST Application, evaluated after 13 days; for pest or weed control at 250 g/ha: Amaranthus retroflexus, post-emergence, 312 h, read-out: damage to plant (100=total damage to plant; 0=no damage to plant); for damage to plant (100=total damage to plant; 0=no damage to plant): 250 g/ha. Here is the method: as §1

Assay [4] has as its system Echinochloa crus-galli (ECHCG). Description: Herbicidal glasshouse test, post-emergence. The note with it: POST Application, evaluated after 13 days; for pest or weed control at 250 g/ha: Echinochloa crus-galli, post-emergence, 312 h, read-out: damage to plant (100=total damage to plant; 0=no damage to plant); for damage to plant (100=total damage to plant; 0=no damage to plant): 250 g/ha. The method, then: as §1

The subject of assay [5] is Setaria faberi (SETFA). Description: Herbicidal glasshouse test, post-emergence. To be noted: POST Application, evaluated after 13 days; for pest or weed control at 250 g/ha: Setaria faberi, post-emergence, 312 h, read-out: damage to plant (100=total damage to plant; 0=no damage to plant); for damage to plant (100=total damage to plant; 0=no damage to plant): 250 g/ha. Here is the method:
as §1

The subject of assay [6] is Abuthilon theophrasti (ABUTH). Briefly: Herbicidal glasshouse test, pre-emergence. The note with it: PRE Application, evaluated after 13 days; for pest or weed control at 250 g/ha: Abutilon theophrasti, pre-emergence, 312 h, read-out: damage to plant (100=total damage to plant; 0=no damage to plant); for damage to plant (100=total damage to plant; 0=no damage to plant): 250 g/ha. Here is the method:
as §1

Assay [7] has as its system Alopecurus myosuroides (ALOMY). Briefly: Herbicidal glasshouse test, pre-emergence. To be noted: PRE Application, evaluated after 13 days; for pest or weed control at 250 g/ha: Alopecurus myosuroides, pre-emergence, 312 h, read-out: damage to plant (100=total damage to plant; 0=no damage to plant); for damage to plant (100=total damage to plant; 0=no damage to plant): 250 g/ha. Here is the method:
as §1

Assay [8] has as its system Amaranthus retoflexus (AMARE). Briefly: Herbicidal glasshouse test, pre-emergence. To be noted: PRE Application, evaluated after 13 days; for pest or weed control at 250 g/ha: Amaranthus retroflexus, pre-emergence, 312 h, read-out: damage to plant (100=total damage to plant; 0=no damage to plant); for damage to plant (100=total damage to plant; 0=no damage to plant): 250 g/ha. Here is the method:
as §1

Assay [9] concerns Echinochloa crus-galli (ECHCG). Briefly: Herbicidal glasshouse test, pre-emergence. To be noted: PRE Application, evaluated after 13 days; for pest or weed control at 250 g/ha: Echinochloa crus-galli, pre-emergence, 312 h, read-out: damage to plant (100=total damage to plant; 0=no damage to plant); for damage to plant (100=total damage to plant; 0=no damage to plant): 250 g/ha. Here is the method: as §1

Assay [10] relates to Setaria faberi (SETFA). Briefly: Herbicidal glasshouse test, pre-emergence. The note with it: PRE Application, evaluated after 13 days; for pest or weed control at 250 g/ha: Setaria faberi, pre-emergence, 312 h, read-out: damage to plant (100=total damage to plant; 0=no damage to plant); for damage to plant (100=total damage to plant; 0=no damage to plant): 250 g/ha. The method, then: as §1

Regarding `Cc1ccc2cc(C(=O)C3C(=O)CCCC3=O)c(=O)n(C)c2n1` [Compound 1.2, 2-(1,7-Dimethyl-2-oxo-1,2-dihydro[1,8]-naphthyridine-3-carbonyl)-cyclohexane-1,3-dione], the pest or weed control at 250 g/ha came to 80% in assay [1]; 40% in assay [2]; 80% in assay [3]; 80% in assay [4]; 80% in the assay with Setaria faberi (SETFA) [5]; 70% in assay [6]. Besides, the pest or weed control at 250 g/ha was found to be 20% in assay [7], 40% in assay [8], 90% in assay [9] and 70% in the assay on Setaria faberi (SETFA) [10].

For the molecule `COCn1c(=O)c(C(=O)C2C(=O)CCCC2=O)cc2cc(F)c(C)nc21` [Compound 1.46], the pest or weed control at 250 g/ha in assay [1] amounted to 100%; in [2], 70%; in [3], 70%; in assay [4] it was 80%; with Setaria faberi (SETFA) [5] it was 70%; in assay [6], 80%. Also, the pest or weed control at 250 g/ha was 60% in assay [7], 100% in assay [8], 100% in assay [9] and 80% with Setaria faberi (SETFA) [10].

`COCn1c(=O)c(C(=O)C2C(=O)CCCC2=O)cc2cc(F)cnc21` [Compound 1.43]: the pest or weed control at 250 g/ha in [1] worked out at 80%; in assay [2], 60%; in assay [3] it was 80%; in assay [4], 80%; in the assay on Setaria faberi (SETFA) [5], 80%; in assay [6], 100%. Moreover, the pest or weed control at 250 g/ha came out at 40% in assay [7], 100% in assay [8], 100% in assay [9] and 100% in the assay on Setaria faberi (SETFA) [10].

`COc1ccc(-n2c(=O)c(C(=O)C3C(=O)CCCC3=O)cc3cc(F)cnc32)cc1` [Compound 4.18]: the “damage to plant (100=total damage to plant; 0=no damage to plant)” value is reported as 80 in assay [1]; 80 in assay [2]; 80 in assay [3]; 80 in assay [4]; 80 with Setaria faberi (SETFA) [5]; 90 in assay [6]. Further, the “damage to plant (100=total damage to plant; 0=no damage to plant)” value came to 70 in assay [7], 90 in [8], 100 in [9] and 70 in the assay with Setaria faberi (SETFA) [10].

For `O=C1CCCC(=O)C1C(=O)c1cc2cc(F)cnc2n(-c2ccccc2C(F)(F)F)c1=O` [Compound 4.34], the “damage to plant (100=total damage to plant; 0=no damage to plant)” value in [1] is reported as 80; in assay [2] it was 90; in assay [3], 80; in [4], 90; with Setaria faberi (SETFA) [5], 80; in [6], 100. Further, the “damage to plant (100=total damage to plant; 0=no damage to plant)” value (in assay [7]; in assay [8]; in assay [9]; in the assay on Setaria faberi (SETFA) [10]) was 100 each time.
